Values belong to the molecule of their own block, whether it stands above or below them. The source made the active and inactive calls. The calls are words filed in the database; no cut-off is given here.
What was measured:
[1] = Prodrug release in HEL cells assessed as 3-cyclopropyl-1-(3-{5-[(morpholin-4-yl)methyl]-1H-1,3-benzodiazol-2-yl}-1H-pyrazol-4-yl)urea formation at 1 uM incubated for 24 hrs under hypoxic condition by LC-MS/MS analysis; format: ADME, cell-based; settings: human
Mus musculus [2] = test: In vivo inhibition of JAK/STAT signalling in Balb/c nude mouse xenografted with HEL cells assessed as reduction in STAT3 phosphorylation in kidney at 40 to 80 mg/kg, ip administered for 14 consecutive days by Western blot analysis; format: functional, organism-based; settings: dose 40-80 mg/kg, time 14.0 day
[3] = Stability of compound in mouse plasma measured after 24 hrs; format: ADME, cell-free
[4] = Prodrug release in HEL cells assessed as N-tert-butyl-3-[[5-methyl-2-(4-piperazin-1-ylanilino)pyrimidin-4-yl]amino]benzenesulfonamide formation at 1 uM incubated for 24 hrs under hypoxic condition by LC-MS/MS analysis; format: ADME, cell-based; settings: human
Mus musculus [5] = test: In vivo inhibition of JAK/STAT signalling in Balb/c nude mouse xenografted with HEL cells assessed as reduction in STAT5 phosphorylation in liver at 40 to 80 mg/kg, ip administered for 14 consecutive days by Western blot analysis; format: functional, organism-based; settings: dose 40-80 mg/kg, time 14.0 day
HEL [6] = test: Inhibition of JAK/STAT phosphorylation in HEL cells assessed as reduction in STAT3 phosphorylation at 3 uM incubated under hypoxic condition by Western blot analysis; format: cell-based; settings: Homo sapiens
Mus musculus [7] = test: In vivo inhibition of JAK/STAT signalling in Balb/c nude mouse xenografted with HEL cells assessed as reduction in STAT5 phosphorylation in heart at 40 to 80 mg/kg, ip administered for 14 consecutive days by Western blot analysis; format: functional, organism-based; settings: dose 40-80 mg/kg, time 14.0 day
Mus musculus [8] = test: In vivo inhibition of JAK/STAT signalling in Balb/c nude mouse xenografted with HEL cells assessed as reduction in STAT3 phosphorylation in heart at 40 to 80 mg/kg, ip administered for 14 consecutive days by Western blot analysis; format: functional, organism-based; settings: dose 40-80 mg/kg, time 14.0 day
[9] = Prodrug release in PBS buffer in presence of NADH and nitroreductase assessed as 3-cyclopropyl-1-(3-{5-[(morpholin-4-yl)methyl]-1H-1,3-benzodiazol-2-yl}-1H-pyrazol-4-yl)urea formation at 10 uM measured after 120 mins under hypoxic condition by LC-MS/MS analysis; format: ADME; settings: 2 h
Mus musculus [10] = test: In vivo inhibition of JAK/STAT signalling in Balb/c nude mouse xenografted with HEL cells assessed as reduction in STAT5 phosphorylation in kidney at 40 to 80 mg/kg, ip administered for 14 consecutive days by Western blot analysis; format: functional, organism-based; settings: dose 40-80 mg/kg, time 14.0 day
Mus musculus [11] = test: In vivo inhibition of JAK/STAT signalling in Balb/c nude mouse xenografted with HEL cells assessed as reduction in STAT3 phosphorylation in liver at 40 to 80 mg/kg, ip administered for 14 consecutive days by Western blot analysis; format: functional, organism-based; settings: dose 40-80 mg/kg, time 14.0 day
[12] = Stability of compound in human plasma measured after 24 hrs; format: ADME, cell-free
Mus musculus [13] = test: In vivo inhibition of JAK/STAT signalling in Balb/c nude mouse xenografted with HEL cells assessed as reduction in STAT5 phosphorylation in spleen at 40 to 80 mg/kg, ip administered for 14 consecutive days by Western blot analysis; format: functional, organism-based; settings: dose 40-80 mg/kg, time 14.0 day
Mus musculus [14] = test: In vivo inhibition of JAK/STAT signalling in Balb/c nude mouse xenografted with HEL cells assessed as reduction in STAT3 phosphorylation in spleen at 40 to 80 mg/kg, ip administered for 14 consecutive days by Western blot analysis; format: functional, organism-based; settings: dose 40-80 mg/kg, time 14.0 day
Mus musculus [15] = test: In vivo inhibition of JAK/STAT signalling in Balb/c nude mouse xenografted with HEL cells assessed as reduction in STAT3 phosphorylation in lung at 40 to 80 mg/kg, ip administered for 14 consecutive days by Western blot analysis; format: functional, organism-based; settings: dose 40-80 mg/kg, time 14.0 day
HEL [16] = test: Antitumor activity against HEL cells xenografted in Balb/c nude mouse assessed as tumor growth inhibition at 80 mg/kg, ip administered once daily for 14 consecutive days relative to control; format: functional, Homo sapiens; settings: 336 h, time 14 day, read-out: TGI
[17] = Stability of compound in PBS measured after 24 hrs; format: physicochemical
HEL [18] = test: Cytotoxicity against HEL cells assessed as inhibition of cell growth incubated under hypoxic condition; format: functional, cell-based; settings: Homo sapiens
HEL [19] = test: Inhibition of JAK/STAT phosphorylation in HEL cells assessed as reduction in STAT3 phosphorylation at 3 uM incubated under normoxic condition by Western blot analysis; format: cell-based; settings: Homo sapiens
[20] = Toxicity in Balb/c nude mouse xenografted with HEL cells assessed as reduction in body weight at 40 to 80 mg/kg, ip administered for 14 consecutive days; format: organism-based; settings: in vivo, 336 h, dose 40-80 mg/kg, time 14 day
[21] = Cytotoxicity against HUVEC cells assessed as inhibition of cell growth; format: toxicity, cell-based; settings: human
HEL [22] = test: Inhibition of JAK/STAT phosphorylation in HEL cells assessed as reduction in STAT5 phosphorylation at 3 uM incubated under hypoxic condition by Western blot analysis; format: cell-based; settings: Homo sapiens
HEL [23] = test: Cytotoxicity against HEL cells assessed as inhibition of cell growth incubated under normoxic condition; format: functional, cell-based; settings: Homo sapiens
HEL [24] = test: Inhibition of JAK/STAT phosphorylation in HEL cells assessed as reduction in STAT5 phosphorylation at 3 uM incubated under normoxic condition by Western blot analysis; format: cell-based; settings: Homo sapiens
HEL [25] = test: Antitumor activity against HEL cells xenografted in Balb/c nude mouse assessed as induction of apoptosis in tumor at 40 to 80 mg/kg, ip administered once daily for 14 consecutive days by TUNEL assay relative to control; format: functional, organism-based; settings: Homo sapiens, dose 40-80 mg/kg, time 14.0 day
Mus musculus [26] = test: In vivo inhibition of JAK/STAT signalling in Balb/c nude mouse xenografted with HEL cells assessed as reduction in STAT5 phosphorylation in lung at 40 to 80 mg/kg, ip administered for 14 consecutive days by Western blot analysis; format: functional, organism-based; settings: dose 40-80 mg/kg, time 14.0 day
[27] = Prodrug release in PBS buffer in presence of NADH and nitroreductase assessed as N-tert-butyl-3-[[5-methyl-2-(4-piperazin-1-ylanilino)pyrimidin-4-yl]amino]benzenesulfonamide formation at 10 uM and measured after 120 mins under hypoxic condition by LC-MS/MS analysis; format: ADME; settings: 2 h
HEL [28] = test: Antitumor activity against HEL cells xenografted in Balb/c nude mouse assessed as tumor growth inhibition at 40 mg/kg, ip administered once daily for 14 consecutive days relative to control; format: functional, Homo sapiens; settings: 336 h, time 14 day, read-out: TGI
HEL [29] = test: Inhibition of JAK/STAT phosphorylation in HEL cells assessed as reduction in STAT3 phosphorylation at 1 uM incubated under dark condition by Western blot analysis relative to control; format: cell-based; settings: Homo sapiens
HEL [30] = test: Cytotoxicity against HEL cells assessed as inhibition of cell growth irradiated with 450 nm light; format: functional, cell-based; settings: Homo sapiens, light or radiation study
[31] = Prodrug release in HEL cells assessed as N-tert-butyl-3-[[5-methyl-2-(4-piperazin-1-ylanilino)pyrimidin-4-yl]amino]benzenesulfonamide formation at 1 uM incubated under dark condition for 6 hrs by LC-MS/MS analysis; format: ADME, cell-based; settings: human
HEL [32] = test: Inhibition of JAK/STAT phosphorylation in HEL cells assessed as reduction in STAT5 phosphorylation at 1 uM incubated under dark condition by Western blot analysis relative to control; format: cell-based; settings: Homo sapiens
[33] = Prodrug release in HEL cells assessed as 3-cyclopropyl-1-(3-{5-[(morpholin-4-yl)methyl]-1H-1,3-benzodiazol-2-yl}-1H-pyrazol-4-yl)urea formation at 1 uM illuminated with 405 nm light for 10 mins and measured after 6 hrs by LC-MS/MS analysis; format: ADME, cell-based; settings: human, 6.167 h, time 370 min
HEL [34] = test: Cytotoxicity against HEL cells assessed as inhibition of cell growth incubated under dark condition; format: functional, cell-based; settings: Homo sapiens
[35] = Prodrug release in HEL cells assessed as N-tert-butyl-3-[[5-methyl-2-(4-piperazin-1-ylanilino)pyrimidin-4-yl]amino]benzenesulfonamide formation at 1 uM illuminated with 405 nm light for 10 mins and measured after 6 hrs by LC-MS/MS analysis; format: ADME, cell-based; settings: human, 6.167 h, time 370 min
HEL [36] = test: Inhibition of JAK/STAT phosphorylation in HEL cells assessed as reduction in STAT3 phosphorylation at 1 uM irradiated with 450 nm light by Western blot analysis relative to control; format: cell-based; settings: Homo sapiens
HEL [37] = test: Inhibition of JAK/STAT phosphorylation in HEL cells assessed as reduction in STAT5 phosphorylation at 1 uM irradiated with 450 nm light by Western blot analysis relative to control; format: cell-based; settings: Homo sapiens
[38] = Prodrug release in HEL cells assessed as 3-cyclopropyl-1-(3-{5-[(morpholin-4-yl)methyl]-1H-1,3-benzodiazol-2-yl}-1H-pyrazol-4-yl)urea formation at 1 uM incubated under dark condition for 6 hrs by LC-MS/MS analysis; format: ADME, cell-based; settings: human
HEL [39] = test: Cytotoxicity against HEL cells assessed as inhibition of cell growth; format: functional, cell-based; settings: Homo sapiens
BaF3 = test: Cytotoxicity against mouse BaF3 cells harboring EPOR JAK2 V617F mutant measured after 24 hrs by XTT assay; format: functional, cell-based; settings: BaF3, 24 h

- Drug metabolism [1]: Metabolite_Detected
- Stability ([3]; 24 h): Stable
- Drug metabolism [4]: Metabolite_Detected
- Drug metabolism [9]: 6.49 µM
- Stability ([12]; 24 h): Stable
- Stability ([17]; buffer, 24 h): Stable
- Drug metabolism [27]: 6.57 µM
SMILES: Cc1cc(COC(=O)N2CCN(c3ccc(Nc4ncc(C)c(Nc5cccc(S(=O)(=O)NC(C)(C)C)c5)n4)cc3)CC2)c(OCc2cnc([N+](=O)[O-])n2C)c(COC(=O)n2cc(NC(=O)NC3CC3)c(-c3nc4cc(CN5CCOCC5)ccc4[nH]3)n2)c1
- inhibition (Mus musculus [2]): inactive
- inhibition (Mus musculus [5]): inactive
- inhibition (HEL [6]): Active
- inhibition (Mus musculus [7]): inactive
- inhibition (Mus musculus [8]): inactive
- inhibition (Mus musculus [10]): inactive
- inhibition (Mus musculus [11]): inactive
- inhibition (Mus musculus [13]): inactive
- inhibition (Mus musculus [14]): inactive
- inhibition (Mus musculus [15]): inactive
- inhibition in vivo at 80 mg/kg (HEL [16]): 88.9%
- IC50 (HEL [18]): 3.1 µM
- inhibition (HEL [19]): inactive
- Activity [20]: Non-Toxic
- IC50 [21]: 84.4 µM
- inhibition (HEL [22]): Active
- IC50 (HEL [23]): > 200 µM
- inhibition (HEL [24]): inactive
- Activity (HEL [25]): Active
- inhibition (Mus musculus [26]): inactive
- inhibition in vivo at 40 mg/kg (HEL [28]): 59.8%

- remaining at 24 h ([3]; read-out: Stability): > 82.8%
- Drug metabolism [31]: Metabolite_Notdetected
- Drug metabolism [33]: Metabolite_Detected
- remaining at 24 h ([12]; read-out: Stability): > 78.3%
- Drug metabolism [35]: Metabolite_Detected
- remaining at 24 h ([17]; PBS, read-out: Stability): > 95.1%
- Drug metabolism [38]: Metabolite_Notdetected
SMILES: CCN(CC)c1ccc2c(COC(=O)Oc3c(COC(=O)N4CCN(c5ccc(Nc6ncc(C)c(Nc7cccc(S(=O)(=O)NC(C)(C)C)c7)n6)cc5)CC4)cc(C)cc3COC(=O)n3cc(NC(=O)NC4CC4)c(-c4nc5cc(CN6CCOCC6)ccc5[nH]4)n3)cc(=O)oc2c1
- inhibition (HEL [29]): inactive
- IC50 (HEL [30]): 1.81 µM
- inhibition (HEL [32]): inactive
- IC50 (HEL [34]): > 200 µM
- inhibition (HEL [36]): 100%
- IC50 [21]: > 200 µM
- inhibition (HEL [37]): 100%

SMILES: N#CC[C@H](C1CCCC1)n1cc(-c2ncnc3[nH]ccc23)cn1 [RUXOLITINIB]
- IC50 (HEL [39]): 7.46 µM

SMILES: Cc1cnc(Nc2ccc(N3CCN(C)CC3)cc2)nc1Nc1cccc(S(=O)(=O)NC(C)(C)C)c1
- IC50 (BaF3): 0.17 µM

From ChEMBL document CHEMBL5385890, “A JAK tyrosine kinase and pseudokinase Co-inhibition strategy combines enhanced potency and on-demand activation” (Eur J Med Chem, 2023)
